Experiments:
A549-hACE2 cells = assay: Cell viability assay in A549-hACE2 cells; conditions: 50 μM, 48 h
Sirt1 = target: T1, Sirt1 (Homo sapiens, UniProt Q96EB6); assay: Sirt1 deacetylation activity assay kit; conditions: time course, FIG. 3
T1 sequence (Q96EB6 1-747): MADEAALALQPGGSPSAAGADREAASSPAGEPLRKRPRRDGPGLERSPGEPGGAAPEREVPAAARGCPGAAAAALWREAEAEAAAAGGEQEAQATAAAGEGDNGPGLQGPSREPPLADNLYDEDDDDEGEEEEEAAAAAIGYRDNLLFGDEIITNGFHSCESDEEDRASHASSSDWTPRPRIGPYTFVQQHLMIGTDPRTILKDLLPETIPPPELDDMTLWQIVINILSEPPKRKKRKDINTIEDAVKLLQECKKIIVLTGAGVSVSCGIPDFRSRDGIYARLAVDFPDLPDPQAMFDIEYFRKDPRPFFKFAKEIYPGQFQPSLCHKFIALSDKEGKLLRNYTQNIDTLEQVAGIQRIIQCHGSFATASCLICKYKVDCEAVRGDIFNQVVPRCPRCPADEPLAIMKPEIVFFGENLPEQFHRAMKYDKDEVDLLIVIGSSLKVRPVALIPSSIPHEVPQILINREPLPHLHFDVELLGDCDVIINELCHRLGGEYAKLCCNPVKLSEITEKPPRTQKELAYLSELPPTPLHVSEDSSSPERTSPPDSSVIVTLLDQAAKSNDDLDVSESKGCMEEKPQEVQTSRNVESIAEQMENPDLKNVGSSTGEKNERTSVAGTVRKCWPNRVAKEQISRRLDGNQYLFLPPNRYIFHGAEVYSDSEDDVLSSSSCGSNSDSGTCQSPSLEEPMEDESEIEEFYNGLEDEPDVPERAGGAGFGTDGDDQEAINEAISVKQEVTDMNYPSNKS
Description: (§2) Sirt6/Sirt1/Sirt2/Sirt3 activity was tested by Activity Assay Kits (Abcam) according to the manufacturer's instruction with minor modification. […] All experiments were conducted at room temperature.

Sirt6 [1] = target: T2, Sirt6 (Homo sapiens, UniProt Q8N6T7); assay: Sirt6-dependent peptide deacetylation, FLUOR DE LYS / Sirt6 fluorometric activity kit; type: biochemical; conditions: mean ± SD, at least two independent experiments
Description: as §2

BV2 cells = assay: LPS-induced inflammatory gene mRNA expression in BV2 cells, q-PCR; type: cell-based, murine
Sirt6 [2] = target: T2, Sirt6; assay: Nucleosome test: Sirt6-dependent H3K9 deacetylation of nucleosomes from HEK293T cells, Western blot; type: biochemical; conditions: 100 μM, 30° C., 60 minutes
Description: (§1) . Nucleosomes extracted from HEK293T cells were incubated with 100 μM of selected compounds or Vehicle at 30° C. for 60 minutes. Acetylated H3K9 and total H3 were detected by Western blot. The level of acetylated H3K9 was quantified by Image Lab software. FIGS. 5B and 5C show the cell viability which was assessed by MTT assay. R28 cells were treated with 30 μM or 100 μM compounds for 24 hours. Data were presented as mean±SEM. The experiment was repeated at least three times. ***p<0.001; ****p<0.0001.
Next, effects of selected compounds were explored for Sirt6-dependent deacetylation of complete nucleosomes extracted from human embryonic kidney (HEK) 293T cells, as nucleosomes represent more physiologically relevant substrates. […]. Briefly, HEK 293T cells in 100 mm dish were lysed with lysis buffer supplemented with PIC and PMSF for 30 min. After centrifugation for 10 min at 5000 rpm at 4° C., supernatant was removed and nuclei pellet was resuspended with digestion buffer supplemented with PIC and PMSF for 5 min at 37° C. Working enzymatic sharing cocktail was added to digest the chromatin, and EDTA was added after incubation to stop the digestion. Digested nucleosome was obtained in the supernatant after centrifugation for 10 min at 15000 rpm at 4° C. and the concentration was quantified by measuring the absorbance at […]. 20 μg nucleosome was incubated in solution (1× buffer, 0.5 μL recombinant Sirt6 and […] NAD, from SIRT6 ACTIVITY ASSAY KIT) for 60 min. To test the effects of the compounds on Sirt6 activity, corresponding compound or DMSO control was added before incubation. The reaction mixture was analyzed by Western blot.
Proteins were extracted from cells with PIERCE RIPA BUFFER (89901, ThermoFisher Scientific), and protein concentration was determined using PIERCE BCA PROTEIN ASSAY KIT (23225, ThermoFisher Scientific). Equal amounts of protein were loaded and separated by SDS-PAGE gel. Next, separated proteins were transferred onto Nitrocellulose Blotting Membranes (A29457237, GE Healthcare Life science), and then the membranes were blocked by 5% non-fat dry milk. After incubation with corresponding primary antibodies against H3K9ac, H3 and Sirt6 at a 1:1000 dilution, or α-tubulin at a 1:5000 dilution, goat anti-mouse or goat anti-rabbit secondary antibodies at a 1:5000 dilution were applied. Finally, membranes were incubated with enhanced chemiluminescent and protein bands were detected by CHEMIDOC imaging system (Bio-Rad). Image-Lab software was used to analyze the intensities of the protein bands.

Sirt3 = target: T3, Sirt3 (Homo sapiens, UniProt Q9NTG7); assay: Sirt3 deacetylation activity assay kit; conditions: time course, FIG. 3
T3 sequence (Q9NTG7 1-399): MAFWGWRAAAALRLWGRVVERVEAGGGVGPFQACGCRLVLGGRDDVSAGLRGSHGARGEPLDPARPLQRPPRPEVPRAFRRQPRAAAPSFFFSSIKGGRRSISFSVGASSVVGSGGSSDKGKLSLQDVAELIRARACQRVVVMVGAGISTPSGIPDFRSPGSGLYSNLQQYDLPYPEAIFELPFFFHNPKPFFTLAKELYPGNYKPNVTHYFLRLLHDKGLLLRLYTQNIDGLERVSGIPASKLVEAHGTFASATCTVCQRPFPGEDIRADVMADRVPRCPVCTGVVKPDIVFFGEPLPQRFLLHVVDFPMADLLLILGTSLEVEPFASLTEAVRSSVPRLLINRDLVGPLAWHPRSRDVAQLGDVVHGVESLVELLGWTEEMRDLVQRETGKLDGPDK
Description: as §2

[3] = system: retinal precursor cells (R28); assay: MTT cell viability assay in R28 cells; type: cell-based; conditions: 30 μM, 24 hours
Description: as §1, with “FIGS. 5A-5C: FIGS. 5A-5C display the deacetylation effect and cytotoxicity of selected compounds. […] Nucleosomes” for “. Nucleosomes”
R28 cells were seeded in 96 well plates at a density of 1×10^4/well overnight, then treated with compounds for 24 h. MTT (MilliporeSigma) was added to cells (20 μL/well) and incubated for 3.5 h. After medium was removed, 100 μL dimethyl sulfoxide (DMSO) was added into each well. Absorbance was measured at 540 nm using a microplate reader.

SARS-CoV-2 = assay: microbe, parasite or virus in culture; type: cell-based

T2 sequence (Q8N6T7 whole entry): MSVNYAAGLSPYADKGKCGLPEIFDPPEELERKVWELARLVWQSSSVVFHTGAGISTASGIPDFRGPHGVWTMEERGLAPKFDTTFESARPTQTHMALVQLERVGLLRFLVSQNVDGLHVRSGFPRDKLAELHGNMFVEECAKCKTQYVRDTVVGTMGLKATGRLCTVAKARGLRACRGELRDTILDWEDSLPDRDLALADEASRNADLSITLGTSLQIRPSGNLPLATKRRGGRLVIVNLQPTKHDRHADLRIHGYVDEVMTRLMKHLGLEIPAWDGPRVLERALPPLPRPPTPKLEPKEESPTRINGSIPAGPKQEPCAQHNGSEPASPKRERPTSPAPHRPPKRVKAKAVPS

Compound: CN(C)CCN1CCN(c2ncccc2C2Nc3ccccc3-n3cccc32)CC1 (stereo not drawn) [Compound 38, 2-(4-(3-(4,5-Dihydropyrrolo[1,2-a]quinoxalin-4-yl)pyridin-2-yl)piperazin-1-yl)-N,N-dimethylethan-1-amine]
- cytotoxicity at the highest tested concentration (A549-hACE2 cells): none of these compounds exhibited significant cytotoxicity
- effect on Sirt1 deacetylation (Sirt1): no significant effects
- Activation Fold 30 μM (Sirt6 [1]; compound at 30 μM): 3.83 ± 0.46 fold
- Activation Fold 100 μM (Sirt6 [1]; compound at 100 μM): 7.38 ± 0.6 fold
- LPS-induced expression of IL-1β, IL-6, MCP-1, and TNFα (BV2 cells; BV2 cells, 30 μM pretreatment 30 minutes, 100 ng/mL LPS 6 hours, mRNA): strongly inhibited
- ICAM-1 induction (BV2 cells; BV2 cells, 30 μM, 100 ng/mL LPS 6 hours, mRNA): slight inhibition
- LPS-induced proinflammatory cytokine/chemokine production (BV2 cells; summary statement): strongly repressed
- acetylation of H3K9 in the nucleosome test (Sirt6 [2]): significantly decreased the acetylation of H3K9
- effect on Sirt3 deacetylation (Sirt3): no significant effects
- toxicity on retinal precursor cells (R28) [3]: no obvious toxicity
- potency in inhibiting SARS-CoV-2 infection (in words) (SARS-CoV-2): micromolar potency
- EC50 (SARS-CoV-2; Severe acute respiratory syndrome coronavirus 2, 48 h, read-out: EC50, SARS-CoV-2 infection): 9.3 µM

— US20240327411A1, “SIRT6 ACTIVATORS” (The Board of Regents of The University of Texas System, priority 2022, published 2024)
